Results: patent US8211470B2, “Method for preparing nano-scale or amorphous particle using solid fat as a solvent” (Bio-Synectics Inc., priority 2003, dated 2012)

Experiment: Particle size of the final powder dispersed in distilled water, particle size analyzer (Mastersizer Microplus)
Format: physicochemical
Description: Next, the pressure inside the collecting reactor containing the sprayed solid powders was elevated to about 150 atm by adding carbon dioxide gas into the collecting reactor. The pressure inside the collecting reactor was constantly maintained to the pressure of 100 atm or more by controlling a vent valve of the collecting reactor, while continuously adding the carbon dioxide gas. Under the constantly maintained pressure, the cetyl alcohol used as a solid fat was extracted for 8 hours with the gas of the supercritical fluid to obtain 1.8 g of fat-removed fine solid particles. The particle size of the obtained powdered mixture was determined by a particle size analyzer (Mastersizer Microplus) by dispersing the obtained powdered mixture into distilled water, and the result was shown in Table 1.
30 g of cetyl alcohol and 2 g of ketoconazole were placed into a 250 ml volume beaker and heated to 80° C. with stirring until the mixture became completely melt to form a transparent liquid. After completely melting the mixture, additional stirring for about 10 minutes was further carried out for homogeneous mixing. Then, the melted mixture was poured into a stainless steel plate which was precooled to 10° C. or less for rapid cooling and solidifying, thereby obtaining the solid product in which the active ingredient was dispersed uniformly into the fat in the form of fine particles. […]

CC(=O)N1CCN(c2ccc(OCC3COC(Cn4ccnc4)(c4ccc(Cl)cc4Cl)O3)cc2)CC1 (stereo not shown) [Raw material (Active ingredient), ketoconazole]
Average particle size: 10.41 μm
